The subject of test [1] is green rice leafhopper which had acquired resistance to chemicals. The test can be described thus: Rice seedling dip test, mortality of resistant green rice leafhopper larvae (Test Example 1). The following applies: Nephotettix cincticeps, read-out: Mortality (%), 500 ppm. The class given is in vivo. The source says: (§1) Five rice seedlings having a height of about 7 cm were dipped, for 10 seconds, into aqueous dilutions of wettable powder each containing a predetermined concentration of each sample compound, prepared in accordance with the procedure as described in Formulation Example 1. After air drying, the roots of the five rice seedlings were wrapped with sanitary cotton dampened with water, and placed in a glass cylinder having a diameter of 3 cm and a height of 20 cm. Ten second instar larvae of a green rice leafhopper which had acquired resistance to chemicals were released into each glass cylinder. The cylinder was allowed to stand in a room maintained at 26° C. The mortality of the larvae was examined 48 hours after treatment.

The subject of test [2] is brown rice planthopper which had acquired resistance to chemicals. The test can be described thus: Rice seedling dip test, mortality of resistant brown rice planthopper larvae (Test Example 2). The class given is in vivo. The conditions noted are these: read-out: Mortality (%), 500 ppm.
Excerpt: as §1, with “brown” for “green”, “planthopper” for “leafhopper”

Where [3] appears, read: 500 ppm wettable powder dilution, rice seedlings dipped 10 seconds, second instar larvae, 48 hours after treatment, 26° C.

Like-named read-outs stand apart in the source and are kept apart here.

Broadly, the mortality is the share of the test organisms that died. For the molecule `Cc1cc(OP(C)(C)=S)ccc1[N+](=O)[O-]` [Comparative Compound, reference compound], the mortality at 500 ppm was determined as 70% in test [1] (48 h) and 65% in test [2] (48 h).
`CN1CN(C)C(=N[N+](=O)[O-])N(Cc2ccc(Cl)nc2)C1` [compound 5, 1-(2-chloro-5-pyridylmethyl)-3,5-dimethyl-2-nitroiminohexahydro-1,3,5-triazine]: the mortality at 500 ppm in test [1] (setting [3]) and in test [2] (setting [3]) was 100% throughout.
Regarding `CN1CNC(=N[N+](=O)[O-])N(Cc2ccc(Cl)nc2)C1` [compound 1, 1-(2-chloro-5-pyridylmethyl)-5-methyl-2-nitroiminohexahydro-1,3,5-triazine], the mortality at 500 ppm in test [1] (setting [3]) and in test [2] (setting [3]) was 100% in each case.
In the case of `CCN1CNC(=N[N+](=O)[O-])N(Cc2ccc(Cl)nc2)C1` [Compound No. 2, 1-(2-chloro-5-pyridylmethyl)-5-ethyl-2-nitroiminohexahydro-1,3,5-triazine], the mortality at 500 ppm in test [1] (setting [3]) and in test [2] (setting [3]) was 100% each time.
With `CN1CN(C)C(=N[N+](=O)[O-])N(Cc2cnc(Cl)s2)C1` [compound 6, 1-(2-chloro-5-thiazolylmethyl)-3,5-dimethyl-2-nitroiminohexahydro-1,3,5-triazine], the mortality at 500 ppm in test [1] (setting [3]) and in test [2] (setting [3]) was 100% throughout.

The values above are taken from patent US20010046994A1, “Hexahydrotriazine compounds and insecticides” (priority 1989, published 2001).
